Assay: cn = amount concentration of the nth substance listed, in mol/dm3
Conditions: 101 kPa, Liquid, Alternating current cell with electrodes

CCCCn1cc[n+](C)c1.[I-] [1-butyl-3-methylimidazolium iodide] + O
Conditions | molar conductivity [S·m2/mol]
298.15 K, c1 = 0.0009058 | 0.0138
298.15 K, c1 = 0.001366 | 0.0137
298.15 K, c1 = 0.002017 | 0.0136
298.15 K, c1 = 0.002809 | 0.0135
298.15 K, c1 = 0.003715 | 0.0134
298.15 K, c1 = 0.00495 | 0.0133
298.15 K, c1 = 0.006082 | 0.0132
298.15 K, c1 = 0.007529 | 0.0131
298.15 K, c1 = 0.009093 | 0.0129
298.15 K, c1 = 0.01105 | 0.0127
298.15 K, c1 = 0.01306 | 0.0126
298.15 K, c1 = 0.01489 | 0.0125
298.15 K, c1 = 0.01706 | 0.0123
298.15 K, c1 = 0.01978 | 0.0122
298.15 K, c1 = 0.02281 | 0.012
308.15 K, c1 = 0.0004602 | 0.0139
308.15 K, c1 = 0.0008351 | 0.0138
308.15 K, c1 = 0.001278 | 0.0137
308.15 K, c1 = 0.001726 | 0.0135
308.15 K, c1 = 0.002088 | 0.0135
308.15 K, c1 = 0.00254 | 0.0133
308.15 K, c1 = 0.003341 | 0.0132
308.15 K, c1 = 0.004184 | 0.0131
308.15 K, c1 = 0.005066 | 0.0129
308.15 K, c1 = 0.006502 | 0.0127
308.15 K, c1 = 0.007827 | 0.0126
308.15 K, c1 = 0.009685 | 0.0124
308.15 K, c1 = 0.01153 | 0.0122
318.15 K, c1 = 0.0002077 | 0.0144
318.15 K, c1 = 0.0005721 | 0.0143
318.15 K, c1 = 0.000962 | 0.0142
318.15 K, c1 = 0.001339 | 0.0141
318.15 K, c1 = 0.002111 | 0.0139
318.15 K, c1 = 0.002755 | 0.0138
318.15 K, c1 = 0.003581 | 0.0136
318.15 K, c1 = 0.004395 | 0.0134
318.15 K, c1 = 0.005399 | 0.0132
318.15 K, c1 = 0.006692 | 0.013
318.15 K, c1 = 0.007942 | 0.0128
318.15 K, c1 = 0.009561 | 0.0126
318.15 K, c1 = 0.01162 | 0.0124
328.15 K, c1 = 0.0004059 | 0.0146
328.15 K, c1 = 0.00074 | 0.0145
328.15 K, c1 = 0.001116 | 0.0143
328.15 K, c1 = 0.001865 | 0.0141
328.15 K, c1 = 0.002626 | 0.0139
328.15 K, c1 = 0.003374 | 0.0138
328.15 K, c1 = 0.004072 | 0.0137
328.15 K, c1 = 0.005214 | 0.0134
328.15 K, c1 = 0.006444 | 0.0132
328.15 K, c1 = 0.007599 | 0.013
328.15 K, c1 = 0.009252 | 0.0128
328.15 K, c1 = 0.01045 | 0.0126
328.15 K, c1 = 0.01188 | 0.0125

CCCCCn1cc[n+](C)c1.[Br-] [1-pentyl-3-methylimidazolium bromide] + O
Conditions | molar conductivity [S·m2/mol]
298.15 K, c1 = 0.000384 | 0.0111
298.15 K, c1 = 0.0008844 | 0.0111
298.15 K, c1 = 0.001373 | 0.011
298.15 K, c1 = 0.001897 | 0.011
298.15 K, c1 = 0.002397 | 0.0109
298.15 K, c1 = 0.003002 | 0.0108
298.15 K, c1 = 0.004323 | 0.0107
298.15 K, c1 = 0.005743 | 0.0106
298.15 K, c1 = 0.00718 | 0.0105
298.15 K, c1 = 0.008646 | 0.0104
298.15 K, c1 = 0.01011 | 0.0102
298.15 K, c1 = 0.01145 | 0.0102
298.15 K, c1 = 0.01293 | 0.01
308.15 K, c1 = 0.0006353 | 0.0115
308.15 K, c1 = 0.001306 | 0.0114
308.15 K, c1 = 0.002028 | 0.0113
308.15 K, c1 = 0.002681 | 0.0113
308.15 K, c1 = 0.003351 | 0.0112
308.15 K, c1 = 0.003975 | 0.0111
308.15 K, c1 = 0.004605 | 0.011
308.15 K, c1 = 0.00598 | 0.0109
308.15 K, c1 = 0.007554 | 0.0107
308.15 K, c1 = 0.008895 | 0.0106
308.15 K, c1 = 0.01033 | 0.0105
308.15 K, c1 = 0.01176 | 0.0103
308.15 K, c1 = 0.01422 | 0.0101
318.15 K, c1 = 0.0004898 | 0.0136
318.15 K, c1 = 0.001056 | 0.0135
318.15 K, c1 = 0.002177 | 0.0134
318.15 K, c1 = 0.003249 | 0.0131
318.15 K, c1 = 0.004768 | 0.0128
318.15 K, c1 = 0.006798 | 0.0124
318.15 K, c1 = 0.009143 | 0.012
318.15 K, c1 = 0.01259 | 0.0115
318.15 K, c1 = 0.01687 | 0.0109
318.15 K, c1 = 0.02234 | 0.0103
328.15 K, c1 = 0.0004268 | 0.0146
328.15 K, c1 = 0.0008311 | 0.0141
328.15 K, c1 = 0.001314 | 0.0139
328.15 K, c1 = 0.002252 | 0.0137
328.15 K, c1 = 0.003274 | 0.0135
328.15 K, c1 = 0.004773 | 0.0133
328.15 K, c1 = 0.006329 | 0.0131
328.15 K, c1 = 0.008289 | 0.0128
328.15 K, c1 = 0.01078 | 0.0125
328.15 K, c1 = 0.01389 | 0.0122
328.15 K, c1 = 0.01791 | 0.0118
328.15 K, c1 = 0.02233 | 0.0115
328.15 K, c1 = 0.02611 | 0.0111

CCCCCCn1cc[n+](C)c1.[Br-] [3-hexyl-1-methyl-1H-imidazolium bromide] + O
Conditions | molar conductivity [S·m2/mol]
298.15 K, c1 = 0.0004233 | 0.0104
298.15 K, c1 = 0.0008352 | 0.0103
298.15 K, c1 = 0.001327 | 0.0102
298.15 K, c1 = 0.001785 | 0.0101
298.15 K, c1 = 0.002231 | 0.0101
298.15 K, c1 = 0.003203 | 0.00996
298.15 K, c1 = 0.004124 | 0.00983
298.15 K, c1 = 0.005143 | 0.00974
298.15 K, c1 = 0.006841 | 0.00955
298.15 K, c1 = 0.008495 | 0.00941
298.15 K, c1 = 0.01022 | 0.00923
298.15 K, c1 = 0.01211 | 0.00905
298.15 K, c1 = 0.01464 | 0.0088
308.15 K, c1 = 0.0004492 | 0.0108
308.15 K, c1 = 0.001027 | 0.0106
308.15 K, c1 = 0.001581 | 0.0105
308.15 K, c1 = 0.002065 | 0.0104
308.15 K, c1 = 0.002724 | 0.0104
308.15 K, c1 = 0.003914 | 0.0102
308.15 K, c1 = 0.005116 | 0.00999
308.15 K, c1 = 0.006411 | 0.00987
308.15 K, c1 = 0.008535 | 0.00965
308.15 K, c1 = 0.01052 | 0.00946
308.15 K, c1 = 0.0126 | 0.00927
308.15 K, c1 = 0.01458 | 0.00912
318.15 K, c1 = 0.0004492 | 0.011
318.15 K, c1 = 0.001027 | 0.0109
318.15 K, c1 = 0.001581 | 0.0108
318.15 K, c1 = 0.002065 | 0.0107
318.15 K, c1 = 0.002724 | 0.0106
318.15 K, c1 = 0.003914 | 0.0104
318.15 K, c1 = 0.005116 | 0.0103
318.15 K, c1 = 0.006411 | 0.0102
318.15 K, c1 = 0.008535 | 0.00993
318.15 K, c1 = 0.01052 | 0.00971
318.15 K, c1 = 0.0126 | 0.00953
318.15 K, c1 = 0.01458 | 0.00935
328.15 K, c1 = 0.0005148 | 0.0114
328.15 K, c1 = 0.001041 | 0.0113
328.15 K, c1 = 0.001608 | 0.0111
328.15 K, c1 = 0.002215 | 0.011
328.15 K, c1 = 0.002695 | 0.0109
328.15 K, c1 = 0.003725 | 0.0107
328.15 K, c1 = 0.004772 | 0.0105
328.15 K, c1 = 0.005836 | 0.0103
328.15 K, c1 = 0.007462 | 0.0102
328.15 K, c1 = 0.00911 | 0.00996
328.15 K, c1 = 0.0107 | 0.00985
328.15 K, c1 = 0.01243 | 0.00963
328.15 K, c1 = 0.0147 | 0.00945

— the NIST ThermoML archive (doi:10.1016/j.fluid.2009.08.011)
